Data as given in patent US20210137857A1, “A COMPOSITION FOR TREATMENT OR PREVENTION OF A NEURODEGENERATIVE DISEASE” (NEILOS S.R.L., priority 2017, published 2021).

How the values were obtained:
[1] = human, in vivo; cited from earlier work
[2] = Solubility tests on the test compounds; assay type: physicochemical

Molecule | patients treated with increase in serum transaminases [1] | patients with abdominal cramps, anorexia, nausea, vomiting and diarrhoea [1] | Solubility test RESULT [2]
Nc1c2c(nc3ccccc13)CCCC2 [Tacrine] | more than 50% | more than a third of patients | –
Amyloid β peptide 1-42 [Peptide β1-42] | – | – | POSITIVE
